The source made the active and inactive calls.
How the values were obtained:
HeLa = experiment: ATP-based viability loss in HeLa cells – cell-based, CellTiter-Glo luminescence, cherry-pick samples, cytotoxicity control for MITF activator project, dose response (AID 540259); type: functional; conditions: Homo sapiens
HEK293 [1] = experiment: cells; conditions: Homo sapiens
HEK293 [2] = experiment: cells; conditions: Homo sapiens; remark: listed apart in the source
Cytochrome P450 2C9 = Cytochrome P450 2C9 (Homo sapiens, UniProt P11712)
Sequence of Cytochrome P450 2C9 (P11712 whole entry): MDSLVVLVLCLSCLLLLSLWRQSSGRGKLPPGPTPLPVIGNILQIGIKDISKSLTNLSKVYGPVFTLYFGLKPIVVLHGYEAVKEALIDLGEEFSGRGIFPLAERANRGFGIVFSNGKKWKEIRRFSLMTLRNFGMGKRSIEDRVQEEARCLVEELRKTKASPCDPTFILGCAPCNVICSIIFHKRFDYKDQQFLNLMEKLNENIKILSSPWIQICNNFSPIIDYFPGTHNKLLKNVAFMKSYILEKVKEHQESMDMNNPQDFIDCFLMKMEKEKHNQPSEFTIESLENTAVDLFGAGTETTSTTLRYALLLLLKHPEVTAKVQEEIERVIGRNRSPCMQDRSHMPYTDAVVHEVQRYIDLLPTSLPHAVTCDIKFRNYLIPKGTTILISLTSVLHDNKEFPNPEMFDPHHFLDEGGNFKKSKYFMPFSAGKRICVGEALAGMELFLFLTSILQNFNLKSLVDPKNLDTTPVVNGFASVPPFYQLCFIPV

Cytochrome P450 3A4 = Cytochrome P450 3A4 (Homo sapiens, UniProt P08684);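 note: CYP3A4 tested as one member of a cytochrome P450 panel screen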
Sequence of Cytochrome P450 3A4 (P08684 whole entry): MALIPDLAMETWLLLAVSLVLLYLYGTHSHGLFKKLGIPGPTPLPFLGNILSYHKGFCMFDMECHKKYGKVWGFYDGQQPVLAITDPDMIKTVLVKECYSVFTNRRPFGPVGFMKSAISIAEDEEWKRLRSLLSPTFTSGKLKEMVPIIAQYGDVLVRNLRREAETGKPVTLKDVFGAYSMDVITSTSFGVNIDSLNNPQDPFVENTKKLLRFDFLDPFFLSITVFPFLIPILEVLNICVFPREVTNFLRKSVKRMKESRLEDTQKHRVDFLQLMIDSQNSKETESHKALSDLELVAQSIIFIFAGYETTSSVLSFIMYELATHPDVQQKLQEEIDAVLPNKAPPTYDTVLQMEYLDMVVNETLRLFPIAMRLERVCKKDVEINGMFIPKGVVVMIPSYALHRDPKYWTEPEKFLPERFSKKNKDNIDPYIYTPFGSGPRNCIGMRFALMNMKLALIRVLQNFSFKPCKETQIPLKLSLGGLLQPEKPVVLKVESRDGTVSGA

Cytochrome P450 2C19 = Cytochrome P450 2C19 (Homo sapiens, UniProt P33261); experiment: Cytochrome panel assay with activity outcomes. Panel member name: p450-cyp2c19 Compounds with AC50 equal or less than 10 uM are considered active; type: functional
Sequence of Cytochrome P450 2C19 (P33261 whole entry): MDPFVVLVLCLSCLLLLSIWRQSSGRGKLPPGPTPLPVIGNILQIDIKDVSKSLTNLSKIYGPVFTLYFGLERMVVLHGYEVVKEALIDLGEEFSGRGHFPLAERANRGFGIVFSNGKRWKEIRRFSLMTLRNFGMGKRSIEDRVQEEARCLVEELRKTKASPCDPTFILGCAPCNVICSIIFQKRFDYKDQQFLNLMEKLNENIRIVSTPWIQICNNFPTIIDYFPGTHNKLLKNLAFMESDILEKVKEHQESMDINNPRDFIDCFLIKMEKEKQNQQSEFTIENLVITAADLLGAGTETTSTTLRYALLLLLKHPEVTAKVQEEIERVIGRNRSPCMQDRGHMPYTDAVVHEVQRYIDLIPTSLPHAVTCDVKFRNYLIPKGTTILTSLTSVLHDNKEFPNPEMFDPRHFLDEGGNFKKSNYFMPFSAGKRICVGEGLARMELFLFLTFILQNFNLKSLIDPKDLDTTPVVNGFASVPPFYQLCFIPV

Cytochrome P450 1A2 = biological target: T1, Cytochrome P450 1A2 (Homo sapiens, UniProt P05177);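 note: PubChem cytochrome P450 panel assay, CYP1A2 panel member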
T1 sequence (P05177 whole entry): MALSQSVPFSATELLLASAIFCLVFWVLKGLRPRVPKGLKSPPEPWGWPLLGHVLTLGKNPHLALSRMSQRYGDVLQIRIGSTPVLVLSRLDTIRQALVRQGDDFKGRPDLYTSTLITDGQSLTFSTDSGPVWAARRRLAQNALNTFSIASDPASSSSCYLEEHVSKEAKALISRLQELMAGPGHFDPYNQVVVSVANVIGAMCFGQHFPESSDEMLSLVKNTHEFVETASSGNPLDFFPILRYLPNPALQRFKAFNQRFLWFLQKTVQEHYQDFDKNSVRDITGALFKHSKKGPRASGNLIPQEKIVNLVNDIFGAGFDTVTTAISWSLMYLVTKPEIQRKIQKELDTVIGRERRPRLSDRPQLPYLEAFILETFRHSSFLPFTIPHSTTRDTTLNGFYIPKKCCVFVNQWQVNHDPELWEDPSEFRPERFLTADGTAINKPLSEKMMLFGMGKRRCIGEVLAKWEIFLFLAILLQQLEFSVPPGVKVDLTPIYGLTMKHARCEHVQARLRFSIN

Escherichia coli = experiment: microbe, parasite or virus in culture
Exodeoxyribonuclease V = biological target: T2, Exodeoxyribonuclease V (Escherichia coli (strain K12), UniProt P04993+P07648+P08394); experiment: RecBCD inhibition via phage-restricted bacterial growth – absorbance, V66 E. coli, mutant T4 phage, counter-screen for AddAB inhibitor project, dose response (AID 492957); type: functional, cell-based, Escherichia coli str. K-12 substr. MG1655
T2 sequence (P04993 whole entry): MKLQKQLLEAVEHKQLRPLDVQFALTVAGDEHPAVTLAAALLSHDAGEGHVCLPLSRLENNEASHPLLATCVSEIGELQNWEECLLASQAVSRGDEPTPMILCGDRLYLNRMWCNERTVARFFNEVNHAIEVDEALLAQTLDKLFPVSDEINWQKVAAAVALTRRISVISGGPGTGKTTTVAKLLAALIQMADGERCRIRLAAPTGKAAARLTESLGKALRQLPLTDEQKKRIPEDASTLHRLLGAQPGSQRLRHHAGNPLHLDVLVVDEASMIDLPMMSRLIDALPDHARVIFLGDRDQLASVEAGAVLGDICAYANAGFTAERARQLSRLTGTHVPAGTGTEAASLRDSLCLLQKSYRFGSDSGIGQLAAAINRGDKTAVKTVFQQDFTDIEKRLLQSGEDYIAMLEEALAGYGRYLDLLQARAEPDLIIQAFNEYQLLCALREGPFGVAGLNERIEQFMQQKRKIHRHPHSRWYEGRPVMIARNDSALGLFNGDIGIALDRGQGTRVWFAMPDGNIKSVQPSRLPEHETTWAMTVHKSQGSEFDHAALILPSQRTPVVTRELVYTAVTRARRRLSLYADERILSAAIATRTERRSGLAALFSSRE
T2 sequence (P07648 whole entry): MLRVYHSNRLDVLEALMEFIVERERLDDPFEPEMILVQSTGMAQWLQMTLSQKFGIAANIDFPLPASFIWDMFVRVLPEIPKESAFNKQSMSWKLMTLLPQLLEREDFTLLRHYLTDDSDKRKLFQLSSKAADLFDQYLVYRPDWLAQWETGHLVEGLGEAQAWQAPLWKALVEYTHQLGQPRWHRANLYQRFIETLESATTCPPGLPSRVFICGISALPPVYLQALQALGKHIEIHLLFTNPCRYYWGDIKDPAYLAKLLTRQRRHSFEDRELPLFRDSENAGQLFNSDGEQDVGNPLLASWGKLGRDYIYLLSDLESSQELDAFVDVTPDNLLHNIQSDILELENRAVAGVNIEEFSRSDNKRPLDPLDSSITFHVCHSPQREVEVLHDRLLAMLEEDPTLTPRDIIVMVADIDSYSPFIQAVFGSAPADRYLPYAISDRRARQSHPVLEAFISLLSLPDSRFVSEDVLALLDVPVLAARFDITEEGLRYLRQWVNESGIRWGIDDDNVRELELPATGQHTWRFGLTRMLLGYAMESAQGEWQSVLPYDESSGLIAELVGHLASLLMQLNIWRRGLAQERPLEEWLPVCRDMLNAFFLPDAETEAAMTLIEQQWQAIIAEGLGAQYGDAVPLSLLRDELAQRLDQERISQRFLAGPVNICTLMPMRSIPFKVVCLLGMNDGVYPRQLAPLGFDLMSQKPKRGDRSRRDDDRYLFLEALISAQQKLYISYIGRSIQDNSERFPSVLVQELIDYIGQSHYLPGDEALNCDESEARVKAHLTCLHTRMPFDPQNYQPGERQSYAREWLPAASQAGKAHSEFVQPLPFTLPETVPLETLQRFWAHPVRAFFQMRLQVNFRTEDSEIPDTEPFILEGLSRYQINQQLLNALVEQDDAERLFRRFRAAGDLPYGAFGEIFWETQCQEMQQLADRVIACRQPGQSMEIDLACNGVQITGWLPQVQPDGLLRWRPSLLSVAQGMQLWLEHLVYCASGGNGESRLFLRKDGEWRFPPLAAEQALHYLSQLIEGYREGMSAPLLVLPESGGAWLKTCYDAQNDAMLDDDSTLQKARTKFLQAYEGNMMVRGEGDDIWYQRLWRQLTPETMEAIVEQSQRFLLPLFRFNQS
T2 sequence (P08394 whole entry): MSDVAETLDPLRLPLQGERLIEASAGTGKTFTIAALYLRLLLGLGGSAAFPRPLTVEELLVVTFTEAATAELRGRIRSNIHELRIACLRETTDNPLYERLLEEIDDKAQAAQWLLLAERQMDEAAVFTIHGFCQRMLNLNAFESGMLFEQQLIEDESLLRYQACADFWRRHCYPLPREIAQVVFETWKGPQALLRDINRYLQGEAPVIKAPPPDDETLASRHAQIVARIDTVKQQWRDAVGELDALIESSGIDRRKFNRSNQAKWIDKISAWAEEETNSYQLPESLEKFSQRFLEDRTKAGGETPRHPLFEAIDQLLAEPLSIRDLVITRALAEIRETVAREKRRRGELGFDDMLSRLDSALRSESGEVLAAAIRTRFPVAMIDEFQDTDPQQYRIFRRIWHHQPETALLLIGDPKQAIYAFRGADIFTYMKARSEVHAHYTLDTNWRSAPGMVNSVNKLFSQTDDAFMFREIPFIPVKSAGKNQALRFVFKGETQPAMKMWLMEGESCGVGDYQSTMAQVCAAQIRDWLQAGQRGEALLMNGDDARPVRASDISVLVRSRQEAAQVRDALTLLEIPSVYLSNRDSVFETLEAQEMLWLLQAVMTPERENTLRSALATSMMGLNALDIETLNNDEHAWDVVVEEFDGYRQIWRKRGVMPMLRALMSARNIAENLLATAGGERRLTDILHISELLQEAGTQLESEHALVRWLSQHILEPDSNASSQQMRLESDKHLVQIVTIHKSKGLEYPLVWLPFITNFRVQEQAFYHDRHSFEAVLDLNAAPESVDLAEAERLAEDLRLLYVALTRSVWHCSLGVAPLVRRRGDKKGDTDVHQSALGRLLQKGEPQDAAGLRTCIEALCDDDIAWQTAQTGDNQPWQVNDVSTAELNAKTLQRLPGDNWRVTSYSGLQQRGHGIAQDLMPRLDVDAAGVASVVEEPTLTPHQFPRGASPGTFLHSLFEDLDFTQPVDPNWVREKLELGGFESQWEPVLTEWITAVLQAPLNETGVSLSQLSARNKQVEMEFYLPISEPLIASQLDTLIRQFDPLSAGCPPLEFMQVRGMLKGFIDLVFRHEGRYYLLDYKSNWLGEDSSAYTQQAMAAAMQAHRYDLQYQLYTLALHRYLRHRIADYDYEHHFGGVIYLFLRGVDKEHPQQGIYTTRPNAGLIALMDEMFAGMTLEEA

[3] = Counterscreen for AddAB inhibitors: absorbance-based bacterial cell-based high throughput dose response assay for inhibitors of bacterial viability. [Related pubchem assays (depositor defined):AID435030, AID449728, AID449731, AID488942, AID488955, AID488956]; type: functional
[4] = A cytotoxicity screen of small molecule inhibitors of the PhoP region in Salmonella typhi identified in the primary screen. [Related pubchem assays: 1850, 1864, 1985 ]; type: functional
Paired box protein Pax-8 = Paired box protein Pax-8 (Homo sapiens, UniProt Q06710); experiment: PAX8 transcriptional activity inhibition in RMG-I – RMG-I cells, luciferase, cherry-pick, dose response (AID 687027); type: functional, cell-based;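 note: luciferase reporter driven by Pax8 target thyroperoxidase promoter measured by SteadyGlo luminescence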
Sequence of Paired box protein Pax-8 (Q06710 whole entry, the tested form may be a part): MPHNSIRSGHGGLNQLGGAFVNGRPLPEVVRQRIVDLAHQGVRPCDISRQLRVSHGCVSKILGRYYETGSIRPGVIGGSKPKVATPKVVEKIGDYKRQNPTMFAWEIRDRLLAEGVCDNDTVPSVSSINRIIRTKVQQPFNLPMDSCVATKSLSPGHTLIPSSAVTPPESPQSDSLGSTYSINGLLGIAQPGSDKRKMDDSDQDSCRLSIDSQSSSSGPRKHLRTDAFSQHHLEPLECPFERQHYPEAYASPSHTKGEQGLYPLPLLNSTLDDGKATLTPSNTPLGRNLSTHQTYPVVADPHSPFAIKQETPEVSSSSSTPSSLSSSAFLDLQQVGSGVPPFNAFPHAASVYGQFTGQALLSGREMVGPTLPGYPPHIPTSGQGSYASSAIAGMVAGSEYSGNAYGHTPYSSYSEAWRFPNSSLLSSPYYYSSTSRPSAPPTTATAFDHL

[5] = biological target: Disintegrin and metalloproteinase domain-containing protein 17 (Homo sapiens, UniProt P78536); experiment: exosite inhibitors of ADAM17, dose response, biochemical (AID 743260)
Sequence of Disintegrin and metalloproteinase domain-containing protein 17 (P78536 whole entry, the tested form may be a part): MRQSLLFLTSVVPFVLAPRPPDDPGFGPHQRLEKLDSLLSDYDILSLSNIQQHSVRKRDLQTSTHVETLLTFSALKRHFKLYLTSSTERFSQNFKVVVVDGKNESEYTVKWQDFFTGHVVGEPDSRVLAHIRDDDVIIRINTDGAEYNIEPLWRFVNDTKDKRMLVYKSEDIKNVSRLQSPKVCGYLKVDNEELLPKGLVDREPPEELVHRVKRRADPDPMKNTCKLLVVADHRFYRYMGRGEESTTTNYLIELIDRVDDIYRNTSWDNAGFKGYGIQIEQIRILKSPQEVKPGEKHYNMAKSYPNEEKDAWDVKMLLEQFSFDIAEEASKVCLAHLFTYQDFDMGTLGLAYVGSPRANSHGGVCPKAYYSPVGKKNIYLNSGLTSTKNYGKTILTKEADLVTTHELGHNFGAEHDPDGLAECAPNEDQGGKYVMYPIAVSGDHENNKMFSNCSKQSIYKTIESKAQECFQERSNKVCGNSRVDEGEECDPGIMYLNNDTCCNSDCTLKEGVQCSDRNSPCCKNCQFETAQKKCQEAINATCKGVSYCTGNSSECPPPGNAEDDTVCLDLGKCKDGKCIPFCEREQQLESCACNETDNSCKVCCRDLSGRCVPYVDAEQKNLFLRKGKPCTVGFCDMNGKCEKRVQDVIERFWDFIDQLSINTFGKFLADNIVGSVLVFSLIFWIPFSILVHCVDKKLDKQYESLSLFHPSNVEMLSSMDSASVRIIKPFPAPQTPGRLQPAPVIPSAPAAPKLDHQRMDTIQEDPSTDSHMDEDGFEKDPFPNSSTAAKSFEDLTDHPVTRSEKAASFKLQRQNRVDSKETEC

## O=C(CNc1cccc(F)c1)N1CCc2ccccc2C1
HeLa
  AC50: 157 µM (active)

## CCC(=O)NCCc1nc2cc(NC(=O)c3ccc(Cl)cc3)ccc2n1C
HeLa
  AC50: 250 µM (active)

## CCOC(=O)c1c(CSc2ccccc2)n(C)c2cc(Br)c(O)c(CN(C)C)c12 [UMIFENOVIR]
HEK293 [1]
  EC50: > 59.7 µM (inactive)
HEK293 [2]
  EC50: > 59.7 µM (inactive)

## Cc1ccc(S(=O)(=O)NCC2CCC(C(=O)O)CC2)cc1 (centres undefined)
Cytochrome P450 2C9
  AC50: 0.1 µM (inconclusive)
Cytochrome P450 3A4
  AC50: inconclusive

## COc1ccccc1NC(=O)N1CCC(c2nnc(SCC(N)=O)n2C)CC1
Cytochrome P450 2C19
  AC50: inconclusive
Cytochrome P450 3A4
  AC50: inconclusive

## CCNc1ncc2nc(-c3ccc(Cl)cc3)c(=O)n(Cc3ccc(F)cc3)c2n1
Cytochrome P450 2C19
  AC50: inconclusive
Cytochrome P450 1A2
  AC50: 12.6 µM (inconclusive)
Cytochrome P450 3A4
  AC50: inconclusive

## Cc1ccc(C)c(N2CCN(c3ccc4cc(S(=O)(=O)N5CCCCC5)ccc4n3)CC2)c1
Escherichia coli
  AC50: 27.6 µM (active)

## FC(F)Oc1ccc(NC(S)=NCc2nc3ccccc3[nH]2)cc1
Exodeoxyribonuclease V
  IC50: > 119 µM (inactive)
[3]
  IC50: > 119 µM (inactive)

## O=C(CCc1nc2cccnc2n1Cc1ccccc1)N1CCOCC1
Escherichia coli
  AC50: 28.4 µM (active)

## Cc1cc(C(=O)CN2C(=O)NC3(CCCCC3C)C2=O)c(C)n1Cc1cccs1 (centres undefined)
HeLa
  AC50: > 350 µM (inactive)

## Cc1ccc(NC(=O)CSCC(=O)Nc2ccccc2N2CCCCC2)cc1
HEK293 [1]
  EC50: > 59.6 µM (inactive)
HEK293 [2]
  EC50: > 59.6 µM (inactive)

## COc1ccc(N(CC(=O)NCc2ccc(Cl)cc2)S(=O)(=O)c2ccccc2[N+](=O)[O-])c(OC)c1
Escherichia coli
  AC50: 23.3 µM (active)

## CCCCCC(CC(=O)NO)C(=O)NC(C(=O)N1CCCC1CO)C(C)C (centres undefined)
[4]
  EC50: > 50 µM (active)
Exodeoxyribonuclease V
  IC50: > 39.5 µM (inactive)
[3]
  IC50: 77.6 µM (inactive)
Paired box protein Pax-8
  AC50: 5.27 µM (active)
[5]
  IC50: 3.59 µM (active)
